Measurements taken from patent publication US20260242340A1, “COMPOUNDS AND METHODS FOR TREATING PROTEIN AGGREGATION DISEASES” (ACELOT, INC., priority 2023, published 2026).

Experiments:
[1] = biological target: peptide fragment of TAR DNA-binding protein 43 (TDP-43) (Homo sapiens, UniProt Q13148); test: Ion-mobility mass spectrometry (IM-MS) of TDP-43 peptide oligomerization; assay type: biochemical; conditions: approximately 4 hours after addition of compound to aggregated peptide sample; for 6mer/hexamer peak of TDP-43 peptide (IM-MS, FIG. 2): versus control
Source text: One of the assays used to determine the effectiveness of the compounds is Ion Mobility Mass Spectroscopy, or IM-MS. In this assay, a protein solution was fed into the IM-MS tube. At the entrance to the tube, an electric field ionized the proteins, propelling them into the body of the tube, where a constant electric field propelled them forward. Upon reaching the end of the tube, the ionized proteins were counted by a particle detector, which can also measure the mass/charge ratio and flight time of each particle.
Methods: IM-MS was utilized to monitor the oligomerization of a peptide fragment of TAR DNA-binding protein 43 (TDP-43) in the presence of compounds 1 and 2 using methods as described in Laos et al ACS Chem. Neuro. 2019, 10 (9), 4112-4123; and Biochemistry 2019, 59 (4), 499-508. The accumulation of TDP-43 aggregates in the central nervous system is a common feature of many neurodegenerative diseases, such as amyotrophic lateral sclerosis, frontotemporal dementia, Alzheimer's disease, and limbic predominant age-related TDP-43 encephalopathy. The ability of IM-MS to separate TDP-43 aggregate species of a specific [m]z+ (m=mass, z=charge) that contains different [n]z+ (n=number of TDP-43 peptide molecules aggregated together) by measuring the arrival time distributions (ATDs) yields oligomeric distribution spectrographs.
In FIG. 2, the number denoted at the top of each peak is the peptide aggregate size (e.g., 6=6 peptides aggregated together). The spectrograph designated as Control is the peptide form of TDP-43 without any protein aggregation disrupting compound added. Measurements were taken approximately 4 hours after addition of compound to aggregated peptide sample. […] The 6mer is the toxic oligomer that propagates disease and neuronal degeneration. FIG. 2 also discloses that the addition of compound 1 or compound 2 decreased the number of higher-order TDP-43 oligomers and increased the number of TDP-43 monomers and dimers.
We conducted two types of experiments. The first was a co-incubation experiment, where we added the compounds to a fresh solution of monomeric protein, and allowed the protein to aggregate (or, ideally, not aggregate) in the presence of the compound. The second experiment was a recovery experiment, where we added our compounds to a solution of pre-aggregated protein. Co-incubation experiments allowed us to determine if the compounds can prevent initial aggregation, while recovery experiments allowed us to determine if the compounds can break up existing aggregates.

[2] = biological target: TDP-43 peptide (amino acids 307-319) (Homo sapiens, UniProt Q13148); test: TDP-43 thioflavin T assay; assay type: biochemical; conditions: ThT RFU at 15 hours; 100% = TDP-43 + DMSO
Method: The effect of compounds on fibril formation by TDP-43 peptide (amino acids 307-319) was screened using a thioflavin T (ThT) fluorescence assay in a 96-well plate format. The monomeric form of TDP-43 307-319 was stored in HFIP at −20° C. in 32 μL vials and then thawed on ice. After thawing a stock aliquot on ice, 16 μL of HFIP and 432 μL 100 mM ammonium acetate was added. This mix was pipetted three times. Three such prepared aliquots were combined to create a master mix. 400 μM of ThT stock was prepared by dissolving 31.8 mg ThT in 10 mL Milli-Q water to make […] stock. The 10 mM ThT stock was then diluted to 400 μM with Milli-Q water and stored at −20° C. until use. 20 μL aliquots of compounds were used as initial starting material. 98 μL of master mix was then added to each well of 96-well plate, and then 2 μL of compounds was added to each well testing a compound. The plate was spun at 4700×rpm to remove bubbles at 4° C., and then the plate measurements were collected. ThT fluorescence was measured through the bottom of the plate using 440- and 480-nm excitation and emission filters for 15 hours at 0.5-hour intervals. Each well was scanned at 5 points with a 1.25 mm distance between points. The relative fluorescence unit (RFU) at 15 hours was used to rank the percent of aggregation for all tested compounds.

toxic tau oligomers = test: Neuronal cell toxicity assay (MTT), tau oligomers; assay type: cell-based; conditions: primary rat neurons, 100% = cells without tau oligomers, 0% = tau oligomers and DMSO
Method: Primary rat cortical and striatal neurons were prepared from foetuses' brain as previously described (Garcia et al., Diabetes, Obesity & Metabolism 2010, 12, 403-413; Roby et al., Food chemistry 2015, 171, 397-404; Colin et al., Biochimie 2016, 130, 178-187). Briefly, the embryos were extracted, brains were collected and dissected using a binocular magnifier. Embryonic cortical/striatal tissues were dissociated by a combination of enzymatic digestion and mechanical dissociation. The relative number of live cells in cell suspension was evaluated for each cortical and striatal neurons using Thoma cell counting chamber and Axio Scope A1 microscope (Carl Zeiss, Oberkochen, Germany). Dissociated neurons were plated (80,000 cells/well) in 48-well plates pre-coated with 15 μg/mL Poly-ornithine (Sigma), 1 μg/ml Laminin (Sigma). Cells were cultured in Neurobasal medium (Invitrogen, Paris, France) serum free of and supplemented with 2% (v/v) of B-27 Supplement (Invitrogen). […]
To induce neuronal toxicity, neurotoxin (oligomeric forms of Aβ, Tau and alpha-synuclein at 0.1-5 μM) were used. […] Cell viability was evaluated by a 3-(4,5-dimethylthiazol-2-yl)-2,5-diphenyl-2H-tetrazolium bromide (MTT) assay at 24-72 h post neurotoxin challenge. […] After complete solubilization of formazan, absorbance was recorded at 500 nm with a spectrophotometer (SpectraMax® i3x, Molecular Devices, San José, USA).

Compound | number of TDP-43 monomers and dimers (IM-MS, FIG. 2) [1] | number of higher-order TDP-43 oligomers (IM-MS, FIG. 2) [1] | 6mer/hexamer peak of TDP-43 peptide (IM-MS, FIG. 2) [1] | % aggregation TDP-43 ThT at 50 μM TDP-43 [2] | % rescue at 10 μM compound from toxic tau oligomers (toxic tau oligomers)
CC(=O)Nc1ccc2c(c1)CCN(CCc1cccc(Cl)c1)C2 [Compound 1] | increased | decreased | depleted | 77.4% | –
CC(=O)Nc1ccc2c(c1)CCN(CCc1ccc(F)c(Cl)c1)C2 [Compound 2] | increased | decreased | depleted | 80.7% | 33.7%
